Measured values from US8815872B2, “Macrocyclics pyrimidines as aurora kinase inhibitors” (Merck Patent GmbH, priority 2008, dated 2014).

Assays:
Aurora A = biological target: T1, Aurora A (Homo sapiens, UniProt O14965); assay: Aurora A enzyme assay (Caliper LC3000 mobility shift); type: biochemical
T1 construct: N-terminal GST fusion with full length Aurora A (1-403 amino acids); purchased Carna Biosciences 05-101
T1 sequence (O14965 1-403): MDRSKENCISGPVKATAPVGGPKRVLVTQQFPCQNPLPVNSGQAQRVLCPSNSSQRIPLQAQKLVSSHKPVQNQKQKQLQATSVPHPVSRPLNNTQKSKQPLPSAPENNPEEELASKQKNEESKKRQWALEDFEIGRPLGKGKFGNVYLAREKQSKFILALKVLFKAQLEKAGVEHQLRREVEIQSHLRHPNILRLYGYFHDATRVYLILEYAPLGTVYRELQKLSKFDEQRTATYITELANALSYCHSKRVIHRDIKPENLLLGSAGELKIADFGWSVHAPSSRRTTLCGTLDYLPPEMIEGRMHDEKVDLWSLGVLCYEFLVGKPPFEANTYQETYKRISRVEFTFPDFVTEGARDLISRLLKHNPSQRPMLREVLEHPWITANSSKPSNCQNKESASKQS
Description: (§1) The Aurora and other kinase assays described here were performed on two Caliper Life Sciences systems, the LC3000 and the Desktop Profiler. These provide data on enzyme activity via measurement of the relative amounts of phosphorylated or unphosphorylated fluorescently labelled substrate peptide at the end of an enzymatic reaction. These different states of peptide are resolved by applying a potential difference across the sample. The presence of a charged phosphate group on the product (as opposed to the substrate) causes a different peptide mobility between the two peptides. This is visualized by excitation of a fluorescent label on the substrate and product peptides and represented as peaks within the analysis software.
For example, in order to measure inhibitor activity of Aurora A inhibitors in the Caliper Life Sciences LC3000, a TTP Mosquito liquid handling instrument was used to place […] of an appropriate concentration of inhibitor in 100% DMSO (for a dose response curve calculation) into each well of a 384-well plate. To this reaction components were added to a final volume of 25 μl: • 0.067 ng/μl GST-Aurora A (Carna Biosciences 05-101. N-terminal GST fusion with full length Aurora A (1-403 amino acids), accession number NP_940835.1). • 15 μM ATP (Fluka, 02055) • 1 mM DTT (Sigma, D0632) • 1 mM MgC12 (Sigma, M1028) • 1 μM substrate peptide (sequence FITC-LRRASLG-(CONH2), synthesized by Tufts Peptide Synthesis service. • 100 mM HEPES pH 7.5 (Calbiochem, 391338) • 0.015% Brij-35 (Sigma, B4184)
The reaction was incubated for 90 min at 25° C., and then stopped by the addition of 70 μl of Stop buffer (100 mM HEPES pH 7.5, 0.015% Brij-35, 10 mM EDTA (Sigma, E7889)).
The plate was read on a Caliper LC 3000 in an Off-Chip mobility shift assay format, using the following parameters for a 12-sipper chip: screening pressure −1.8 psi, upstream voltage −2700, downstream voltage −1000. These conditions cause unphosphorylated substrate and phosphorylated product peptide to resolve as separate peaks allowing direct measurement of percentage of conversion of substrate to product. The percent conversion was plotted against concentration of inhibitor to produce a sigmoidal dose response curve, from which an IC50 was calculated using XLFit for Microsoft Excel.

Aurora B = Aurora B (Homo sapiens, UniProt Q96GD4); assay: Aurora B enzyme assay (Caliper); type: biochemical
Description: as §1

MiaPaca2 = assay: Cellular activity MiaPaca2; type: cell-based; settings: Homo sapiens, MIA PaCa-2
Description: (§2) The susceptibility of a particular cell to treatment with the compounds according to the invention was determined by in vitro tests. Typically, a culture of the cell was combined with a compound according to the invention at various concentrations for a period of time that was sufficient to allow the active agents to induce cell death or to inhibit migration, usually between about one hour and one week. In vitro testing was carried out using cultivated cells from a biopsy sample. The viable cells remaining after the treatment then were counted.

A549 = assay: Cellular activity A549; type: cell-based; settings: Homo sapiens
Description: as §2

Sequence of Aurora B (Q96GD4 whole entry): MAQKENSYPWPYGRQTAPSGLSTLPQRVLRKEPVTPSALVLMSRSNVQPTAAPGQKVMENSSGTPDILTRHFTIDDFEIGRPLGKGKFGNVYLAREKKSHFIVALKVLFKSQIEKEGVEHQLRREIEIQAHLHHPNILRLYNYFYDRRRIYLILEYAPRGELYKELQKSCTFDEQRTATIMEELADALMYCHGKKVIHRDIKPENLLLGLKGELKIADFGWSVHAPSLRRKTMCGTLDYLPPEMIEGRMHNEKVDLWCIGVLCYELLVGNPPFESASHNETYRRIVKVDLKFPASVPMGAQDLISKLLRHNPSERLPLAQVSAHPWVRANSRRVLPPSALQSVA

SMILES: NC(=O)[C@H]1[C@H]2C[C@H]3[C@H]1Nc1nc(ncc1F)Nc1cnn(c1)CCS[C@@H]3C2
- IC50 (Aurora A): 1 to 100 nM

SMILES: NC(=O)[C@H]1[C@H]2C[C@H]3[C@H]1Nc1nc(ncc1F)Nc1cccc(c1)OCCCS[C@@H]3C2
- IC50 (Aurora B): 1 to 100 nM
- IC50 (Aurora A): 1 to 100 nM
- IC50 (MiaPaca2): 1000 to 6250 nM
- IC50 (A549): 1000 to 6250 nM

SMILES: NC(=O)[C@H]1[C@H]2C[C@H]3[C@H]1Nc1nc(ncc1F)Nc1cccc(c1)S(=O)(=O)NC(=O)N[C@@H]3C2
- IC50 (Aurora A): 101 to 1000 nM

SMILES: O[C@@H]1COC2CCCC(C2)Nc2nc(ncc2F)Nc2cccc(c2)OC[C@@H]1O (stereo partly drawn)
- IC50 (Aurora A): 101 to 1000 nM

SMILES: Fc1cnc2nc1N[C@@H]1CCC[C@H](C1)OCCCCOc1cccc(c1)N2
- IC50 (Aurora A): 101 to 1000 nM

SMILES: NC(=O)[C@H]1[C@H]2C[C@H]3[C@H]1Nc1nc(ncc1F)Nc1cccc(c1)CCC(=O)N[C@@H]3C2
- IC50 (Aurora B): 101 to 1000 nM
- IC50 (Aurora A): 101 to 1000 nM
- IC50 (MiaPaca2): 1000 to 6250 nM
- IC50 (A549): 1000 to 6250 nM

SMILES: NC(=O)[C@H]1[C@H]2C[C@H]3[C@H]1Nc1nc(ncc1F)Nc1ccc(F)c(c1)CC(=O)O[C@@H]3C2
- IC50 (Aurora B): 1000 to 6250 nM
- IC50 (Aurora A): 1000 to 6250 nM

SMILES: CCC1CC2[C@H](O)C(O)COc3cccc(c3)Nc3ncc(F)c(n3)N[C@H]2[C@H]1C(N)=O (stereo partly drawn)
- IC50 (Aurora A): 1000 to 6250 nM

SMILES: NC(=O)[C@H]1[C@H]2C[C@H]3[C@H]1Nc1nc(ncc1F)Nc1ccc(F)c(c1)CC(=O)N[C@@H]3C2
- IC50 (Aurora B): 1 to 100 nM
- IC50 (Aurora A): 1 to 100 nM
- IC50 (MiaPaca2): 1000 to 6250 nM
- IC50 (A549): 1000 to 6250 nM

SMILES: Fc1cnc2nc1NC1CCC(CC1)OC/C=C/COc1cccc(c1)N2
- IC50 (Aurora A): 101 to 1000 nM

SMILES: NC(=O)[C@H]1[C@H]2C[C@H]3[C@H]1Nc1nc(ncc1F)Nc1cccc(c1)CCS[C@@H]3C2 [drawing 234]
- IC50 (Aurora B): 1 to 100 nM
- IC50 (Aurora A): 1 to 100 nM
- IC50 (MiaPaca2): 1000 to 6250 nM
- IC50 (A549): 1000 to 6250 nM

SMILES: CN1CCN(c2ccc3cc2OCCN[C@@H]2C[C@@H]4C[C@H]2[C@@H](Nc2nc(ncc2F)N3)[C@H]4C(N)=O)CC1
- IC50 (Aurora B): 1 to 100 nM
- IC50 (Aurora A): 101 to 1000 nM
- IC50 (MiaPaca2): 101 to 1000 nM
- IC50 (A549): 101 to 1000 nM

SMILES: NC(=O)[C@H]1[C@H]2C[C@H]3[C@H]1Nc1nc(ncc1F)Nc1ccc4c(c1)CN(CC4)C(=O)CS[C@@H]3C2
- IC50 (Aurora B): 1 to 100 nM
- IC50 (Aurora A): 1 to 100 nM
- IC50 (MiaPaca2): 1000 to 6250 nM
- IC50 (A549): 1000 to 6250 nM

SMILES: NC(=O)[C@H]1[C@H]2C[C@H]3[C@H]1Nc1nc(ncc1F)Nc1cccc(c1)C(O)CS[C@@H]3C2 (stereo partly drawn)
- IC50 (Aurora A): 1 to 100 nM
- IC50 (MiaPaca2): 101 to 1000 nM
- IC50 (A549): 101 to 1000 nM

SMILES: NC(=O)[C@H]1[C@H]2C[C@H]3[C@H]1Nc1nc(ncc1F)Nc1cccc(c1)CC[S+]([O-])[C@@H]3C2 (stereo partly drawn)
- IC50 (Aurora B): 1 to 100 nM
- IC50 (Aurora A): 1 to 100 nM
- IC50 (MiaPaca2): 1000 to 6250 nM
- IC50 (A549): 1000 to 6250 nM

SMILES: NC(=O)[C@H]1[C@H]2C[C@H]3[C@H]1Nc1nc(ncc1F)Nc1cccc(c1)/C=C\S[C@@H]3C2
- IC50 (Aurora A): 101 to 1000 nM

SMILES: C=CC(=O)NC[C@H]1[C@H]2C[C@H]3[C@H]1Nc1nc(ncc1F)Nc1cccc(c1)C(O)CS[C@@H]3C2 (stereo partly drawn)
- IC50 (Aurora A): 101 to 1000 nM
- IC50 (MiaPaca2): > 6250 nM
- IC50 (A549): > 6250 nM

SMILES: NC(=O)[C@H]1[C@H]2C[C@H]3[C@H]1Nc1nc(ncc1F)Nc1cccc(c1)CCN[C@@H]3C2
- IC50 (Aurora B): 1 to 100 nM
- IC50 (Aurora A): 101 to 1000 nM
- IC50 (MiaPaca2): 1000 to 6250 nM
- IC50 (A549): 1000 to 6250 nM

SMILES: NC(=O)[C@H]1[C@H]2C[C@H]3[C@H]1Nc1nc(ncc1F)Nc1cccc(c1)CCC(=O)O[C@@H]3C2
- IC50 (Aurora B): 101 to 1000 nM
- IC50 (Aurora A): 101 to 1000 nM
- IC50 (MiaPaca2): 1000 to 6250 nM
- IC50 (A549): 1000 to 6250 nM

SMILES: NC(=O)[C@H]1[C@H]2C[C@H]3[C@H]1Nc1nc(ncc1F)Nc1cccc(c1)[C@@H](O)CS[C@@H]3C2
- IC50 (Aurora B): 1 to 100 nM
- IC50 (Aurora A): 1 to 100 nM
- IC50 (MiaPaca2): 101 to 1000 nM
- IC50 (A549): 101 to 1000 nM

SMILES: NC(=O)[C@H]1[C@H]2C[C@H]3[C@H]1Nc1nc(ncc1F)Nc1ccc4c(c1)N(CC4)C(=O)CS[C@@H]3C2
- IC50 (Aurora B): 101 to 1000 nM
- IC50 (Aurora A): 1 to 100 nM
- IC50 (MiaPaca2): > 6250 nM
- IC50 (A549): > 6250 nM

SMILES: NC(=O)[C@H]1[C@@H]2CC3CNC(=O)Cc4cccc(c4)Nc4ncc(F)c(n4)N[C@@H]1[C@@H]3C2 (stereo partly drawn)
- IC50 (Aurora A): 1 to 100 nM
